Results published in patent US20240336654A1, “ANTIMICROBIAL PEPTIDOMIMETICS” (SPEXIS AG, priority 2021, published 2024).
Where a SMILES comes first, the peptide text is derived from it. Bridges are numbered along the chain shown (N, C = ends). [ ]: non-standard residue; d: D form. The star is where a group is joined. Val(Nα-amidino) = CC(C)[C@H](NC(=N)N)C(=O)*; Hyp = O=C(O)[C@@H]1C[C@@H](O)CN1; Cit = NC(=O)NCCC[C@H](N)C(=O)O; Pen = CC(C)(S)[C@H](N)C(=O)O; dDab = NCC[C@@H](N)C(=O)O; Orn = NCCC[C@H](N)C(=O)O; Dab = NCC[C@H](N)C(=O)O

Key:
Format in all cases: cell-based
[1] = system: human red blood cells (hRBC); conditions: red cells of human, 1 h, 200 μg/mL
Summary of the method: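 Peptides at 200 μg/mL incubated 1 h at 37 °C with 20% (v/v) washed human RBC, shaking. Hemolysis from supernatant OD540, expressed as percent of 2.5% Triton X-100 lysis, with PBS as 0%.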

[2] = system: Escherichia coli MCR-1 Af 45; conditions: MCR-1 Af 45
Summary of the method: (§1)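 MICs were determined by CLSI broth microdilution in cation-adjusted Mueller-Hinton II broth with about 5×10^5 CFU/mL inoculum. Peptides were tested in two-fold serial dilutions with 0.002% polysorbate 80 final. MIC in μg/mL is the lowest concentration with no visible growth after 18-20 h at 35 °C.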

[3] = system: Escherichia coli ATCC 25922; conditions: ATCC 25922
Summary of the method: as §1

[4] = system: Klebsiella pneumoniae SSI3010; conditions: SSI3010
Summary of the method: as §1

SMILES	Escherichia coli MCR-1 Af45 MIC [2]	Escherichia coli ATCC 25922 MIC [3]	Klebsiella pneumoniae SSI3010 MIC [4]	Hemolysis at 0.2 g/L [1]
CC[C@H](C)[C@H](NC(=O)[C@@H]1C[C@@H](O)CN1C(=O)[C@@H](NC(=N)N)C(C)C)C(=O)N[C@@H]1C(=O)N[C@@H](Cc2ccc(O)cc2)C(=O)N[C@@H]([C@@H](C)O)C(=O)N[C@@H](CC(N)=O)C(=O)N[C@@H](CCCNC(=N)N)C(=O)N[C@@H](CCN)C(=O)N[C@@H]([C@@H](C)O)C(=O)N[C@H](CCN)C(=O)N[C@@H](CCCCN)C(=O)N[C@@H](CCN)C(=O)N[C@@H](CCCNC(N)=O)C(=O)N[C@H](C(=O)N[C@@H](Cc2ccc(O)cc2)C(=O)O)CSSC1(C)C [Example 98, Gua-Val-Hyp-Ile-Pen-Tyr-Thr-Asn-Arg-Dab-Thr-^DDab-Lys-Dab-Cit-Cys-Tyr] ({Val(Nα-amidino)}-[Hyp]I[Pen]YTNR[Dab]T[dDab]K[Dab][Cit]CY-OH; disulfide 3-14)	0.125 µg/mL	0.25 µg/mL	0.5 µg/mL	<1%
CC[C@H](C)[C@H](NC(=O)[C@@H]1C[C@@H](O)CN1C(=O)[C@@H](NC(=N)N)C(C)C)C(=O)N[C@@H]1C(=O)N[C@@H](Cc2ccc(O)cc2)C(=O)N[C@@H](CO)C(=O)N[C@@H](CC(N)=O)C(=O)N[C@@H](CCCNC(=N)N)C(=O)N[C@@H](CCN)C(=O)N[C@@H]([C@@H](C)O)C(=O)N[C@H](CCN)C(=O)N[C@@H](CO)C(=O)N[C@@H](CCN)C(=O)N[C@@H](CCN)C(=O)N[C@H](C(=O)N[C@@H](Cc2ccc(O)cc2)C(=O)O)CSSC1(C)C [Example 99, Gua-Val-Hyp-Ile-Pen-Tyr-Ser-Asn-Arg-Dab-Thr-^DDab-Ser-Dab-Dab-Cys-Tyr] ({Val(Nα-amidino)}-[Hyp]I[Pen]YSNR[Dab]T[dDab]S[Dab][Dab]CY-OH; disulfide 3-14)	0.125 µg/mL	0.25 µg/mL	0.25 µg/mL	<1%
CC[C@H](C)[C@H](NC(=O)[C@@H]1C[C@@H](O)CN1C(=O)[C@@H](NC(=N)N)C(C)C)C(=O)N[C@@H]1C(=O)N[C@@H](Cc2ccc(O)cc2)C(=O)N[C@@H]([C@@H](C)O)C(=O)N[C@@H](CC(N)=O)C(=O)N[C@@H](CCCNC(=N)N)C(=O)N[C@@H](CCN)C(=O)N[C@@H]([C@@H](C)O)C(=O)N[C@H](CCN)C(=O)N[C@@H](CO)C(=O)N[C@@H](CCN)C(=O)N[C@@H](CCCN)C(=O)N[C@H](C(=O)N[C@@H](Cc2ccc(O)cc2)C(=O)O)CSSC1(C)C [Example 100, Gua-Val-Hyp-Ile-Pen-Tyr-Thr-Asn-Arg-Dab-Thr-^DDab-Ser-Dab-Orn-Cys-Tyr] ({Val(Nα-amidino)}-[Hyp]I[Pen]YTNR[Dab]T[dDab]S[Dab][Orn]CY-OH; disulfide 3-14)	0.25 µg/mL	0.25 µg/mL	0.5 µg/mL	<1%
CC[C@H](C)[C@H](NC(=O)[C@@H]1C[C@@H](O)CN1C(=O)[C@@H](NC(=N)N)C(C)C)C(=O)N[C@@H]1C(=O)N[C@@H](Cc2ccc(O)cc2)C(=O)N[C@@H](CCN)C(=O)N[C@@H](CC(N)=O)C(=O)N[C@@H](CCCNC(=N)N)C(=O)N[C@@H](CCN)C(=O)N[C@@H]([C@@H](C)O)C(=O)N[C@H](CCN)C(=O)N[C@@H](CCCCN)C(=O)N[C@@H]([C@@H](C)O)C(=O)N[C@@H](CCN)C(=O)N[C@H](C(=O)N[C@@H](Cc2ccc(O)cc2)C(=O)O)CSSC1(C)C [Example 101, Gua-Val-Hyp-Ile-Pen-Tyr-Dab-Asn-Arg-Dab-Thr-^DDab-Lys-Thr-Dab-Cys-Tyr] ({Val(Nα-amidino)}-[Hyp]I[Pen]Y[Dab]NR[Dab]T[dDab]KT[Dab]CY-OH; disulfide 3-14)	0.125 µg/mL	0.125 µg/mL	0.5 µg/mL	<1%
CC[C@H](C)[C@H](NC(=O)[C@@H]1C[C@@H](O)CN1C(=O)[C@@H](NC(=N)N)C(C)C)C(=O)N[C@@H]1C(=O)N[C@@H](Cc2ccc(O)cc2)C(=O)N[C@@H](CCN)C(=O)N[C@@H](CC(N)=O)C(=O)N[C@@H](CCCNC(=N)N)C(=O)N[C@@H](CCN)C(=O)N[C@@H]([C@@H](C)O)C(=O)N[C@H](CCN)C(=O)N[C@@H](CO)C(=O)N[C@@H]([C@@H](C)O)C(=O)N[C@@H](CCN)C(=O)N[C@H](C(=O)N[C@@H](Cc2ccc(O)cc2)C(=O)O)CSSC1(C)C [Example 102, Gua-Val-Hyp-Ile-Pen-Tyr-Dab-Asn-Arg-Dab-Thr-^DDab-Ser-T-Dab-Cys-Tyr] ({Val(Nα-amidino)}-[Hyp]I[Pen]Y[Dab]NR[Dab]T[dDab]ST[Dab]CY-OH; disulfide 3-14)	0.25 µg/mL	0.25 µg/mL	0.5 µg/mL	<1%
CC[C@H](C)[C@H](NC(=O)[C@@H]1C[C@@H](O)CN1C(=O)[C@@H](NC(=N)N)C(C)C)C(=O)N[C@@H]1C(=O)N[C@@H](Cc2ccc(O)cc2)C(=O)N[C@@H](CO)C(=O)N[C@@H](CC(N)=O)C(=O)N[C@@H](CCCNC(=N)N)C(=O)N[C@H](CCN)C(=O)N[C@@H]([C@@H](C)O)C(=O)N[C@H](CCN)C(=O)N[C@@H](CO)C(=O)N[C@@H](CCN)C(=O)N[C@@H](CCN)C(=O)N[C@H](C(=O)N[C@@H](Cc2ccc(O)cc2)C(=O)O)CSSC1(C)C [Example 104, Gua-Val-Hyp-Ile-Pen-Tyr-Ser-Asn-Arg-^DDab-Thr-^DDab-Ser-Dab-Dab-Cys-Tyr] ({Val(Nα-amidino)}-[Hyp]I[Pen]YSNR[dDab]T[dDab]S[Dab][Dab]CY-OH; disulfide 3-14)	0.25 µg/mL	0.25 µg/mL	0.25 µg/mL	<1%
CC[C@H](C)[C@H](NC(=O)[C@@H]1C[C@@H](O)CN1C(=O)[C@@H](NC(=N)N)C(C)C)C(=O)N[C@@H]1C(=O)N[C@@H](Cc2ccc(O)cc2)C(=O)N[C@@H]([C@@H](C)O)C(=O)N[C@@H](CC(N)=O)C(=O)N[C@@H](CCCNC(=N)N)C(=O)N[C@@H](CCN)C(=O)N[C@@H]([C@@H](C)O)C(=O)N[C@H](CCN)C(=O)N[C@@H](CC(N)=O)C(=O)N[C@@H](CCN)C(=O)N[C@@H](CCN)C(=O)N[C@H](C(=O)N[C@@H](Cc2ccc(O)cc2)C(=O)O)CSSC1(C)C [Example 105, Gua-Val-Hyp-Ile-Pen-Tyr-Thr-Asn-Arg-Dab-Thr-^DDab-Asn-Dab-Dab-Cys-Tyr] ({Val(Nα-amidino)}-[Hyp]I[Pen]YTNR[Dab]T[dDab]N[Dab][Dab]CY-OH; disulfide 3-14)	0.125 µg/mL	0.125 µg/mL	0.25 µg/mL	<1%

Continued, in another order:

Escherichia coli MCR-1 Af45 MIC [2]	Escherichia coli ATCC 25922 MIC [3]	Klebsiella pneumoniae SSI3010 MIC [4]	SMILES	Hemolysis at 0.2 g/L [1]
0.125 µg/mL	0.125 µg/mL	0.25 µg/mL	CC[C@H](C)[C@H](NC(=O)[C@@H]1C[C@@H](O)CN1C(=O)[C@@H](NC(=N)N)C(C)C)C(=O)N[C@@H]1C(=O)N[C@@H](Cc2ccc(O)cc2)C(=O)N[C@@H]([C@@H](C)O)C(=O)N[C@@H](CC(N)=O)C(=O)N[C@@H](CCCNC(=N)N)C(=O)N[C@@H](CCN)C(=O)N[C@@H]([C@@H](C)O)C(=O)N[C@H](CCN)C(=O)N[C@@H](CCCNC(N)=O)C(=O)N[C@@H](CCN)C(=O)N[C@@H](CCN)C(=O)N[C@H](C(=O)N[C@@H](Cc2ccc(O)cc2)C(=O)O)CSSC1(C)C [Example 97, Gua-Val-Hyp-Ile-Pen-Tyr-Thr-Asn-Arg-Dab-Thr-^DDab-Cit-Dab-Dab-Cys-Tyr] ({Val(Nα-amidino)}-[Hyp]I[Pen]YTNR[Dab]T[dDab][Cit][Dab][Dab]CY-OH; disulfide 3-14)	<1%
0.125 µg/mL	0.125 µg/mL	0.25 µg/mL	CC[C@H](C)[C@H](NC(=O)[C@@H]1C[C@@H](O)CN1C(=O)[C@@H](NC(=N)N)C(C)C)C(=O)N[C@@H]1C(=O)N[C@@H](Cc2ccc(O)cc2)C(=O)N[C@@H]([C@@H](C)O)C(=O)N[C@@H](CC(N)=O)C(=O)N[C@@H](CCCNC(=N)N)C(=O)N[C@H](CCN)C(=O)N[C@@H]([C@@H](C)O)C(=O)N[C@H](CCN)C(=O)N[C@@H](CO)C(=O)N[C@@H](CCN)C(=O)N[C@@H](CCN)C(=O)N[C@H](C(=O)N[C@@H](Cc2ccc(O)cc2)C(=O)O)CSSC1(C)C [Example 103, Gua-Val-Hyp-Ile-Pen-Tyr-Thr-Asn-Arg-^DDab-Thr-^DDab-Ser-Dab-Dab-Cys-Tyr] ({Val(Nα-amidino)}-[Hyp]I[Pen]YTNR[dDab]T[dDab]S[Dab][Dab]CY-OH; disulfide 3-14)	<1%
0.125 µg/mL	0.125 µg/mL	0.25 µg/mL	CC[C@H](C)[C@H](NC(=O)[C@@H]1C[C@@H](O)CN1C(=O)[C@@H](NC(=N)N)C(C)C)C(=O)N[C@@H]1C(=O)N[C@@H](Cc2ccc(O)cc2)C(=O)N[C@@H](CO)C(=O)N[C@@H](CC(N)=O)C(=O)N[C@@H](CCCNC(=N)N)C(=O)N[C@@H](CCN)C(=O)N[C@@H]([C@@H](C)O)C(=O)N[C@H](CCN)C(=O)N[C@@H](CCCNC(N)=O)C(=O)N[C@@H](CCN)C(=O)N[C@@H](CCN)C(=O)N[C@H](C(=O)N[C@@H](Cc2ccc(O)cc2)C(=O)O)CSSC1(C)C [Example 106, Gua-Val-Hyp-Ile-Pen-Tyr-Ser-Asn-Arg-Dab-Thr-^DDab-Cit-Dab-Dab-Cys-Tyr] ({Val(Nα-amidino)}-[Hyp]I[Pen]YSNR[Dab]T[dDab][Cit][Dab][Dab]CY-OH; disulfide 3-14)	<1%
